Literature values in US20190046468A1 (SUN PHARMACEUTICAL INDUSTRIES LIMITED, priority 2017, published 2019).

Experiments:
[1] = in vivo
[2] = aqueous media and many other solvents including acetone

plasma half-life [1]: about 1 hour
solubility [2]: freely soluble
SMILES: COc1ccccc1OCC(O)CO (centres unmarked) [Guaifenesin]
